Data: US11439641B2, “Pyrimidine JAK inhibitors for the treatment of skin diseases” (THERAVANCE BIOPHARMA R&D IP, LLC, priority 2019, dated 2022)

Legend:
Tyk2 = Tyk2 (Homo sapiens (Human), UniProt P29597); assay: Biochemical JAK and Tyk2 Kinase Assays (LanthaScreen), Tyk2; conditions: 10 μM ATP (Km), pIC50 converted to pKi by Cheng-Prusoff
[1] = Human Liver Microsome Assay; conditions: human liver microsomes 0.1 mg/mL, 0.1 μM compound, 1 mM NADPH, 37° C.
Description: Assay 4: Human Liver Microsome Assay
The objective of this assay was to assess the metabolic stability of test compounds in an in vitro human liver sub-fraction. Human liver microsomes obtained from Bioreclamation-IVT (Baltimore, Md.) were thawed on ice and diluted into 0.1 M potassium phosphate buffer pH 7.4 to yield final incubation protein concentrations of 0.1 mg/mL. Test compounds (10 mM) were diluted into NADPH cofactor to yield final incubation concentrations of 0.1 μM test compound and 1 mM NADPH. Incubations were conducted at 37° C. temperature and test aliquots were taken at time points 0, 5, 8, 15, 30 and 45 minutes. Each aliquot was crashed into water with 3% formic acid and 1 μM internal standard. The resulting samples were injected onto an LC-MS/MS system for analysis.
For each incubation, the peak area of the analytes in each t0 aliquot was set to 100% and the peak areas from subsequent time point aliquots were converted to percentage of parent compound remaining relative to t0. The percentage of parent compound remaining was converted to natural log scale and plotted versus time in minutes. A linear regression analysis was performed for the initial decline of the parent disappearance profile and a formula for the best-fit line determined. The slope of the resultant line was normalized to protein concentration in mg/mL protein or number of cells/mL and CLint was calculated as follows for liver microsomes: CLint(μL·min^−1·mg^−1)=(Slope×1000)/[protein,mg/mL]
CLint values from 9-49 μl/min/mg represent moderate clearance (i.e. 30-70% of hepatic blood flow in human) and values >50 μl/min/mg represent high hepatic clearance (i.e. >70% of hepatic blood flow in human).

[2] = tested on: IL-22 suppressed Filaggrin expression in normal human epidermal keratinocytes; assay: Recovery of IL-22 Suppressed Filaggrin in Normal Human Epidermal Keratinocytes; assay type: cell-based; conditions: IL-22 50 ng/mL, real-time PCR
Description: Assay 7: Recovery of IL-22 Suppressed Filaggrin in Normal Human Epidermal Keratinocytes
IL-22 is known to inhibit the expression of terminal differentiation genes, such as Filaggrin. The recovery level of test compound for interleukin-22 (IL-22) suppressed Filaggrin expression was measured in the normal human epidermal keratinocytes (ATCC) using real-time PCR.
Primary epidermal keratinocytes were cultured in a 37° C., 5% CO2 humidified incubator in dermal cell basal medium (ATCC) supplemented with keratinocyte growth kit (ATCC) and 1× Pen/Strep (Life Technologies). Cells were seeded at 5,000 cells/well in BioCoat 96-well plates (Corning) with 100 μl and incubated at 37° C., 5% CO2 for 3 to 4 days till 100% confluency. Then, the medium was removed and replaced with 1504 of medium containing does-response of test compounds. Compounds were serially diluted in DMSO and then diluted another 1000-fold in media to bring the final DMSO concentration to 0.1%. On day 1 of the assay, cells were incubated with test compounds at 37° C. for 1 h, and followed by the addition of followed by the addition of IL-22 (R&D Systems; final concentration 50 ng/mL) in pre-warmed media (50 μL) for 4 days. The medium with test compounds and IL-22 was changed once on day 3. On day 5, cells were washed with 1×PBS (Gibco) and lysed with 50 μl of Lysis Buffer containing 0.5 μl DnaseI from TaqMan® Gene Expression Cells-to-Ct™ Kit (Life Technologies). After incubation at room temperature (RT) for 5 minutes, 5 μl of Stop solution from the kit was added and then incubated at RT for 2 minutes. 11.25 μl of lysate, 12.5 μl of 2×RT buffer and 1.25 μl 20×RT enzyme mix from the kit were mixed. The reverse transcription reaction was carried out by incubating the mixture at 37° C. for 60 minutes and then 95° C. for 5 minutes to generate cDNA. To assemble the PCR cocktail, each reaction contained 10 μl of 2× TaqMan® Gene Expression Mater Mix, 1 μl of 2× TaqMan® Filaggrin Gene Expression Assay (Life Technologies), 1 μl of 2× TaqMan® UBC Gene Expression Assay (Life Technologies), 4 μl of nuclease-free water and 4 μl of cDNA. PCR reactions were done on StepOnePlus™ (Life Technologies) with cycling conditions of 50° C. for 2 minutes, 95° C. for 10 minutes followed by 40 cycles of 95° C. for 15 seconds and 60° C. for 1 minute. Fluorescence signals were captured after each cycle. Comparative CT method was used to quantify gene expression with cells without IL-22 and test compounds as baseline control.

[3] = Solubility Assay in Organic Excipients; conditions: maximum upper limit 20,000 μM; for Solubility in MCT (mg/mL): medium chain triglycerides (MCT)

Sequence of Tyk2 (P29597 whole entry): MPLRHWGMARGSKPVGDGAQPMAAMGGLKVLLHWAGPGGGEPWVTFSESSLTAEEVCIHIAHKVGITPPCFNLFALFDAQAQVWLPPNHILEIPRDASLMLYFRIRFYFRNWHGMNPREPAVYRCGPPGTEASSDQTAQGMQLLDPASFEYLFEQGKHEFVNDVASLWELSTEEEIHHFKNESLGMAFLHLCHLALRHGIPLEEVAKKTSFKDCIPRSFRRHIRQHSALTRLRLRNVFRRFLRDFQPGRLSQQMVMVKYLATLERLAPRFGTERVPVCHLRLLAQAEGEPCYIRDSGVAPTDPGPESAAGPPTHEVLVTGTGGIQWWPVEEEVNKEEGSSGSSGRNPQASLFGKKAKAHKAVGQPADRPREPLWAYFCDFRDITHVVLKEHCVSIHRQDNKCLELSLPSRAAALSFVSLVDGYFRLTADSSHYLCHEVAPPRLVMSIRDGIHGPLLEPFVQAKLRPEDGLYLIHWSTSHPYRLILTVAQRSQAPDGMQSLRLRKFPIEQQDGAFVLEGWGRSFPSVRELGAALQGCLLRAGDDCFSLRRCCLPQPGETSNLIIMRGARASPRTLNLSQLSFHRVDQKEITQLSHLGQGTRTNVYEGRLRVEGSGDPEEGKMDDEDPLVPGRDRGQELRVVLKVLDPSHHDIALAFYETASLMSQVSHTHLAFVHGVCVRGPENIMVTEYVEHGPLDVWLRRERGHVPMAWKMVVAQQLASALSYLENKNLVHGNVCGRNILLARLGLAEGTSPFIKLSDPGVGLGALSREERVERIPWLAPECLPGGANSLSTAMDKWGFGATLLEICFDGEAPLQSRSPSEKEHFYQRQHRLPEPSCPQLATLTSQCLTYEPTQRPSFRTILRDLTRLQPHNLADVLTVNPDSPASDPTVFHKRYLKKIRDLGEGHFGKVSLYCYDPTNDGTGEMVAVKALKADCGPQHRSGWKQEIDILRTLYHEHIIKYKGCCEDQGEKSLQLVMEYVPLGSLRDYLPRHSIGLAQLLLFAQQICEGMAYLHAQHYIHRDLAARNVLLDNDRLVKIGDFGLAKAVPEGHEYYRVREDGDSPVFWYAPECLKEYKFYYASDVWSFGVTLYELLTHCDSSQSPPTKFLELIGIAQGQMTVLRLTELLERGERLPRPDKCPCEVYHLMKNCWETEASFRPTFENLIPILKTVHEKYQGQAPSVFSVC

| SMILES | Tyk 2 (pKi) (Tyk2) | HLM Clin μL/min/mg [1] | concentration at which recovery of IL-22 suppressed Filaggrin expression was observed [2] [µM] | Solubility in PEG400 (mg/mL) [3] | Solubility in Diisopropyl adipate (mg/mL) [3] | Solubility in MCT (mg/mL) [3] | Solubility in Propylene glycol (mg/mL) [3] | Ki (Tyk2; read-out: Tyk 2 (pKi) (converted)) [nM] |
| --- | --- | --- | --- | --- | --- | --- | --- | --- |
| CCS(=O)(=O)N1[C@@H]2CCC[C@H]1C[C@H](N(C)c1nc(COC3COC3)c(F)c(Nc3cc(C)[nH]n3)n1)C2 [Compound 41, N2-((1R,3s,5S)-9-(ethylsulfonyl)-9-azabicyclo[3.3.1]nonan-3-yl)-5-fluoro-N2-methyl-N4-(5-methyl-1H-pyrazol-3-yl)-6-((oxetan-3-yloxy)methyl)pyrimidine-2,4-diamine] | A (A represents a pKi value ≥10 (Ki≤0.1 nM)) | C (C represents a Clint value between 130 and 500) | < 1 | B (B represents a value between 5 and 10) | A (A represents a value above 10) | C (C represents a value below 5) | A (A represents a value above 10) |  |
| COC(=O)N1[C@@H]2CCC[C@H]1C[C@H](N(C)c1nc(Nc3cc(C)[nH]n3)cc(O[C@@H]3CCOC3)n1)C2 [Compound 23] |  |  | < 1 |  |  |  |  | 0.1 to 1 |
| CCS(=O)(=O)N1[C@@H]2CCC[C@H]1C[C@H](N(C)c1nc(CO[C@@H]3CCOC3)c(F)c(Nc3cc(C)[nH]n3)n1)C2 [Compound 43, N2-((1R,3s,5S)-9-(ethylsulfonyl)-9-azabicyclo[3.3.1]nonan-3-yl)-5-fluoro-N2-methyl-N4-(5-methyl-1H-pyrazol-3-yl)-6-((((R)-tetrahydrofuran-3-yl)oxy)methyl)pyrimidine-2,4-diamine] | A (A represents a pKi value ≥10 (Ki≤0.1 nM)) | C (C represents a Clint value between 130 and 500) | < 1 | A (A represents a value above 10) | A (A represents a value above 10) | C (C represents a value below 5) | A (A represents a value above 10) |  |
| CCS(=O)(=O)N1[C@@H]2CCC[C@H]1C[C@H](N(C)c1nc(CO[C@H]3CCOC3)c(F)c(Nc3cc(C)[nH]n3)n1)C2 [Compound 42, N2-((1R,3s,5S)-9-(ethylsulfonyl)-9-azabicyclo[3.3.1]nonan-3-yl)-5-fluoro-N2-methyl-N4-(5-methyl-1H-pyrazol-3-yl)-6-((((S)-tetrahydrofuran-3-yl)oxy)methyl)pyrimidine-2,4-diamine] | A (A represents a pKi value ≥10 (Ki≤0.1 nM)) | B (B represents a Clint value between 500 and 1250) | < 1 | A (A represents a value above 10) | A (A represents a value above 10) | C (C represents a value below 5) | A (A represents a value above 10) |  |
| CCS(=O)(=O)N1[C@@H]2CCC[C@H]1C[C@H](N(C)c1nc(Nc3cc(C)[nH]n3)cc(C3CCCO3)n1)C2 (stereo partly drawn) [Compound 8, N^2-((1R,3s,5S)-9-(ethylsulfonyl)-9-azabicyclo[3.3.1]nonan-3-yl)-N2-methyl-N4-(5-methyl-1H-pyrazol-3-yl)-6-(tetrahydrofuran-2-yl)pyrimidine-2,4-diamine] | A (A represents a pKi value ≥10 (Ki≤0.1 nM)) | A (A represents a Clint value between 1250 and 3000) | < 1 | A (A represents a value above 10) | B (B represents a value between 5 and 10) | C (C represents a value below 5) | A (A represents a value above 10) |  |
